Test results as given in publication PMC10305119, “Analogs of 6-Bromohypaphorine with Increased Agonist Potency for α7 Nicotinic Receptor as Anti-Inflammatory Analgesic Agents” (Marine Drugs, 2023).

Tested on: ERK 1/2 phosphorylation
Assay: ERK1/2 phosphorylation in LPS-stimulated macrophages (flow cytometry)
Type: cell-based, human
Details: compound 1 h, then LPS 3 h; control MFI 194; listed as 6ID
Method: To gain an insight into the signaling induced by the tested compounds, ERK1/2 and STAT3 phosphorylation was checked. Macrophages were treated with tested compounds for 1 h, after which they were stimulated with LPS for 3 h.
Peripheral blood mononuclear cells (PBMCs) were separated by Ficoll-Paque PLUS density gradient centrifugation. PBMCs were placed in a sterile Petri dish and incubated at 37 °C for 2 h. Unattached cells were then removed by washing with PBS and substituted with fresh complete RPMI 1640 medium. To generate monocyte-derived macrophages (MDMs), 50 ng/mL GM-CSF was added to the isolated monocytes and cultured for 6 days to differentiate them into non-polarized MDMs.
Figure 5 Effects of the analyzed compounds on signaling pathways in LPS-stimulated macrophages. Cells were treated with PNU 282987, hypaphorine, or 6-iodohypaphorine methyl ester (6ID) for 1 h and then stimulated with LPS for 3 h. Phosphorylated ERK1/2 and STAT3 were quantified by flow cytometry with specific antibodies. […] (c): Representative histogram showing the increase in ERK 1/2 phosphorylation in comparison to control. The numbers in the histograms show the MFI ± SD (n = 3). MFI—geometrical mean fluorescence intensity. One-way ANOVA tests with Tukey post hoc test: * p ˂ 0.05, ** p ˂ 0.01, *** p < 0.001 in comparison with untreated cells. […]

## COC(=O)[C@@H](Cc1c[nH]c2cc(I)ccc12)[N+](C)(C)C [Compound 1, (D)-6-iodohypaphorine methyl ester]
  ERK 1/2 phosphorylation, MFI: 274
